Key:
[1] = tested on: M1 macrophages and M2 macrophages differentiated from mouse bone marrow cells; assay: Subtype identification by staining and flow cytometry of M1 and M2 macrophages differentiated from mouse bone marrow cells; format: cell-based, Balb/c mouse; settings: for difference in the staining intensity between the M1 macrophages and the M2 macrophages / identification: mouse bone marrow derived; for Selectivity: subtype strongly stained
Method in brief: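 Balb/c mouse bone marrow cells were differentiated to macrophages with 50 ng/mL M-CSF over two 3–4-day periods, then polarized for 3 days to M1 (interferon-γ plus polyliposaccharide) or M2 (IL-4). Live cells (aqua dye-negative) were analysed by flow cytometry; resolution R = |FM1−FM2|/(WM1+WM2) from histogram peak positions and widths indexed subtype discrimination.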

[2] = tested on: M1 macrophages and M2 macrophages differentiated from THP-1 cells; assay: Identification of macrophage subtypes differentiated from human cell line THP-1; format: cell-based; settings: for Resolution ratio R / Evaluation of macrophage subtype identification: M1 vs M2 macrophages differentiated from THP-1 cells; for Resolution ratio R: channel listed per compound (Table 6); for Evaluation of macrophage subtype identification: class based on resolution R (Table 6); for Peak position of M1 macrophage: THP-1-derived M1 macrophages; for Peak position of M1 macrophage / Peak position of M2 macrophage: fluorescence intensity peak by flow cytometry in the channel listed per compound (Table 6); for Peak position of M2 macrophage: THP-1-derived M2 macrophages; for Selectivity: subtype strongly stained, THP-1-derived macrophages (Table 6); for difference in the staining intensity between the M1 macrophages and the M2 macrophages / identification: THP-1 derived
Protocol: The fluorescent signals derived from the compounds (3), (4), (6), (7), (9), (11) to (13), (15), (17), (19) to (26), (28), (30) to (33), (35), (36), (38), (42) to (45), (48) to (62), (65), (67), (74) to (76), (82), (83) and (85) and the comparative compounds (1) and (2) were measured in channels suitable to the respective compounds. Histograms were prepared by plotting fluorescence intensities obtained in the respective channels on the abscissa and plotting the numbers of cells at each fluorescence intensity on the ordinate. A difference between a fluorescence intensity (FM1) at a peak top of the histogram of the M1 macrophage and a fluorescence intensity (FM2) at a peak top of the histogram of the M2 macrophage is divided by a sum of a peak width (WM1) of the histogram of the M1 macrophage and a peak width (WM2) of the histogram of the M2 macrophage, so as to obtain a resolution R, which was used as an index of the identification ability for a subtype (see the following expression (1)). Resolution R=|FM1−FM2|/(WM1+WM2) Expression (1)
Based on the thus obtained values of the resolution R, the identification abilities for the subtypes of the compounds (3), (4), (6), (7), (9), (11) to (13), (15), (17), (19) to (26), (28), (30) to (33), (35), (36), (38), (42) to (45), (48) to (62), (65), (67), (74) to (76), (82), (83) and (85) and the comparative compounds (1) and (2) were evaluated as any of A to C according to the following criteria, and if the resolution R was 0.15 or more, the compound was determined to be good in the subtype identification.
The subtypes were identified by using the compound (1) in the same manner as in Example 1 except that the macrophage subtypes differentiated from the mouse bone marrow cells were changed to macrophage subtypes differentiated from a cell line established from human acute monocytic leukemia.
The culture of subtypes was performed with reference to NPL 10. Specifically, THP-1 cells purchased from JCRB Cell Bank of National Institute of Biomedical Innovation, that is, a cell line established from human acute monocytic leukemia, were subcultured several times, and the resultant cells were dispersed to a concentration of 5.0×10^5/mL in an RPMI1640 containing 10% FBS and 1% P/S, and 5.0×10^6 cells were seeded in a 100 mm dish. The monocytes were differentiated into macrophages by incubating the resultant in the presence of 5% CO2 at 37° C. for 2 days with 500 ng of PMA added thereto. After exchanging the medium, by adding 200 ng of interferon-γ and 1 μg of polyliposaccharide (both manufactured by Pepro Tech) to the medium, the cells were differentiated to the subtype M1. Besides, by adding 200 ng of IL-4 and IL-13, the cells were differentiated to the subtype M2. After incubation performed in the presence of 5% CO2 at 37° C. for 24 hours, the resultant was rinsed with PBS, and PBS containing 0.25% trypsin and 1 mM EDTA (ethylenediaminetetraacetic acid) was used for collecting, from the dish, the macrophages having been differentiated to the subtypes M1 and M2.
Specifically, fluorescent signals derived from the compounds (1) (3) (4) (12) and (15) were measured by using the channels which are appropriate for each of the compounds and the identification abilities for the subtypes of the compounds were evaluated based on the values of the resolution R.

[3] = R=|FM1−FM2|/(WM1+WM2), compound 1 μM
[4] = fluorescence intensity at peak top of histogram, compound 1 μM, 37° C., 30 minutes
[5] = M1 vs M2 macrophages from mouse bone marrow cells, general formula (10) dyes (Table 8)
[6] = M1 vs M2 macrophages from mouse bone marrow cells, general formula (11) dyes (Table 9)
[7] = class based on resolution R, general formula (10) dyes (Table 8)
[8] = class based on resolution R, general formula (11) dyes (Table 9)
[9] = mouse bone marrow-derived M1 macrophages, channel listed per compound, general formula (10) dyes (Table 8)
[10] = mouse bone marrow-derived M1 macrophages, channel listed per compound, general formula (11) dyes (Table 9)
[11] = mouse bone marrow-derived M2 macrophages, channel listed per compound, general formula (10) dyes (Table 8)
[12] = mouse bone marrow-derived M2 macrophages, channel listed per compound, general formula (11) dyes (Table 9)

For `O=C(O)CN1C(=O)/C(=C\c2cc(Br)c3c(c2)C2CCCC2N3c2ccc(Br)cc2)SC1=S` (centres unmarked) [(12)], the “Resolution ratio R” value [1, 3] was 0.594, the “Peak position of M1 macrophage” value [1, 4] was 50.7 and the “Peak position of M2 macrophage” value [1, 4] was 97.7. The “Evaluation of macrophage subtype identification” value (shortened to “Evaluation”) ([1]; rated from resolution R) was “A (The compound is very good in the subtype identification (namely, the resolution R is 0.5 or more))”, the “Resolution ratio R” value [2] was 0.276 and the “Evaluation” value [2] was “B (the compound is good in the subtype identification (namely, the resolution R is 0.15 or more and less than 0.5))”. For the same molecule, the “Peak position of M1 macrophage” value [2] was 37.4, the “Peak position of M2 macrophage” value [2] was 46.5 and the Selectivity [2] was “M2”.

For `COC(=O)CCC(C(=O)OC)N1C(=O)/C(=C\c2ccc3c(c2)C2CCCC2N3c2ccc(OC)cc2)SC1=S` (centres unmarked) [compound (4)], the “Resolution ratio R” value [1, 3] was 1.125, the “Peak position of M1 macrophage” value [1, 4] was 158 and the “Peak position of M2 macrophage” value [1, 4] was 45.4. For the same molecule, the “Evaluation” value ([1]; rated from resolution R) was “A (The compound is very good in the subtype identification (namely, the resolution R is 0.5 or more))”, the “Resolution ratio R” value [2] was 0.372 and the “Evaluation” value [2] was “B (the compound is good in the subtype identification (namely, the resolution R is 0.15 or more and less than 0.5))”. The “Peak position of M1 macrophage” value [2] was 26.5, the “Peak position of M2 macrophage” value [2] was 17.9 and the Selectivity [2] was “M1”.

In the case of `CCC1=C(CC)c2cc3[nH]c(cc4nc(cc5[nH]c(cc1n2)c(CC)c5CC)C(CC)=C4CC)c(CC)c3CC` [(1), reference compound], the “Resolution ratio R” value ([1]; M1 vs M2 macrophages from mouse bone marrow cells, general formula (6) dyes (Table 7)) is reported as 0.006, the “Resolution ratio R” value [1, 5] is reported as 0.006 and the “Resolution ratio R” value [1, 6] is reported as 0.006. The “Resolution ratio R” value [1, 3] was 0.006, the “Evaluation” value ([1]; class based on resolution R, general formula (6) dyes (Table 7)) was “C (the compound cannot identify the subtypes (namely, the resolution R is less than 0.15))” and the “Evaluation” value [1, 7] was “C (the compound cannot identify the subtypes (namely, the resolution R is less than 0.15))”. The “Evaluation” value [1, 8] was “C (the compound cannot identify the subtypes (namely, the resolution R is less than 0.15))”, the “Peak position of M1 macrophage” value [1, 4] was 1.70 and the “Peak position of M2 macrophage” value [1, 4] was 1.86. For the same molecule, the “difference in the staining intensity between the M1 macrophages and the M2 macrophages / identification” value [1] was “no difference in the staining intensity”, the “Peak position of M1 macrophage” value ([1]; mouse bone marrow-derived M1 macrophages, channel listed per compound, general formula (6) dyes (Table 7)) was 1.70 and the “Peak position of M1 macrophage” value [1, 9] was 1.70. The “Peak position of M1 macrophage” value [1, 10] was 1.70, the “Peak position of M2 macrophage” value ([1]; mouse bone marrow-derived M2 macrophages, channel listed per compound, general formula (6) dyes (Table 7)) was 1.86 and the “Peak position of M2 macrophage” value [1, 11] was 1.86. The “Peak position of M2 macrophage” value [1, 12] was 1.86, the “Evaluation” value ([1]; rated from resolution R) was “C (the compound cannot identify the subtypes (namely, the resolution R is less than 0.15))” and the Selectivity ([1]; general formula (6) dyes (Table 7)) was “No”. The Selectivity ([1]; general formula (10) dyes (Table 8)) was “No” and the “difference in the staining intensity between the M1 macrophages and the M2 macrophages / identification” value [2] was “no difference in the staining intensity”.

For `COc1ccc(N2c3ccc(/C=C4\C(=O)NC(=O)C(C#N)=C4C)cc3C3CCCC32)cc1` (centres unmarked) [(2), reference compound], the “Resolution ratio R” value [1, 3] was 0.007, the “Peak position of M1 macrophage” value [1, 4] was 0.86 and the “Peak position of M2 macrophage” value [1, 4] was 1.05. The “difference in the staining intensity between the M1 macrophages and the M2 macrophages / identification” value [1] was “no difference in the staining intensity”, the “Evaluation” value ([1]; rated from resolution R) was “C (the compound cannot identify the subtypes (namely, the resolution R is less than 0.15))” and the “difference in the staining intensity between the M1 macrophages and the M2 macrophages / identification” value [2] was “no difference in the staining intensity”.

In the case of `CCOC(=O)Cn1c(=O)/c(=C\c2ccc3c(c2)C2CCCC2N3Cc2ccccc2)s/c1=C1/SC(=S)N(CC)C1=O` (centres unmarked) [(55)], the “Resolution ratio R” value [1, 3] is reported as 0.206, the “Peak position of M1 macrophage” value [1, 4] is reported as 2.34 and the “Peak position of M2 macrophage” value [1, 4] is reported as 1.86. For the same molecule, the “Evaluation” value ([1]; rated from resolution R) was “B (the compound is good in the subtype identification (namely, the resolution R is 0.15 or more and less than 0.5))”.

With `CC1=C(S(=O)(=O)O)C(C)=[N+]2C1=C(C)c1c(C)c(S(=O)(=O)O)c(C)n1[B-]2(F)F` [(165)] the “Resolution ratio R” value [1, 6] was 0.183, the “Evaluation” value [1, 8] was “B (the compound is good in the subtype identification (namely, the resolution R is 0.15 or more and less than 0.5))” and the “Peak position of M1 macrophage” value [1, 10] was 1.25. For the same molecule, the “Peak position of M2 macrophage” value [1, 12] was 2.00.

For `O=C(O)CCC(C(=O)O)N1C(=O)/C(=C\c2ccc3c(c2)C2CCCC2N3c2ccccc2)SC1=S` (centres unmarked) [(23)], the “Resolution ratio R” value [1, 3] was 0.185, the “Peak position of M1 macrophage” value [1, 4] was 1.10 and the “Peak position of M2 macrophage” value [1, 4] was 1.48. For the same molecule, the “Evaluation” value ([1]; rated from resolution R) was “B (the compound is good in the subtype identification (namely, the resolution R is 0.15 or more and less than 0.5))”.

`CCN(CC)c1ccc2cc(-c3nc4ccc(OC)cc4o3)c(=O)oc2c1` [(132)] was tested, and the “Resolution ratio R” value [1, 5] was 0.624, the “Evaluation” value [1, 7] was “A (The compound is very good in the subtype identification (namely, the resolution R is 0.5 or more))” and the “Peak position of M1 macrophage” value [1, 9] was 30.3. For the same molecule, the “Peak position of M2 macrophage” value [1, 11] was 53.8.

`O=C(O)CCN1C(=O)/C(=C\c2ccc3c(c2)C2CCCC2N3c2ccccc2)SC1=S` (centres unmarked) [(13)] was tested, and the “Resolution ratio R” value [1, 3] was 0.714, the “Peak position of M1 macrophage” value [1, 4] was 7.74 and the “Peak position of M2 macrophage” value [1, 4] was 20.4. For the same molecule, the “Evaluation” value ([1]; rated from resolution R) was “A (The compound is very good in the subtype identification (namely, the resolution R is 0.5 or more))”.

In the case of `COC(=O)COc1ccc(/C=C/C2=[N+]3C(=Cc4ccc(-c5cccs5)n4[B-]3(F)F)C=C2)cc1` [compound (161)], the “Resolution ratio R” value [1, 6] is reported as 0.582, the “Evaluation” value [1, 8] is reported as “A (The compound is very good in the subtype identification (namely, the resolution R is 0.5 or more))” and the “Peak position of M1 macrophage” value [1, 10] is reported as 38.4. The “Peak position of M2 macrophage” value [1, 12] was 9.02 and the “subtype more strongly stained” value ([1]; two compounds used in combination, each 1 μM) was “the M1 macrophages show higher fluorescence intensity in the APC channel than the M2 macrophages”.

`CCN1c2ccc(/C=C3/SC(=S)N(CCC(=O)O)C3=O)cc2CC1C` (centres unmarked) [(56)] was tested, and the “Resolution ratio R” value [1, 3] was 0.207, the “Peak position of M1 macrophage” value [1, 4] was 4.90 and the “Peak position of M2 macrophage” value [1, 4] was 6.36. For the same molecule, the “Evaluation” value ([1]; rated from resolution R) was “B (the compound is good in the subtype identification (namely, the resolution R is 0.15 or more and less than 0.5))”.

With `CC1(C)C(/C=C/c2ccc3c(c2)C2CCCC2N3c2ccc(C=C(c3ccccc3)c3ccccc3)cc2)=[N+](CCC(=O)O)c2ccccc21` (centres unmarked) [(59)] the “Resolution ratio R” value [1, 3] was 0.733, the “Peak position of M1 macrophage” value [1, 4] was 188 and the “Peak position of M2 macrophage” value [1, 4] was 325. The “Evaluation” value ([1]; rated from resolution R) was “A (The compound is very good in the subtype identification (namely, the resolution R is 0.5 or more))”.
